From article PMC5677254, “Design, Synthesis, and Characterization of N-Oxide-Containing Heterocycles with in Vivo Sterilizing Antitubercular Activity” (Journal of Medicinal Chemistry, 2017)
≈ marks a conversion by molar mass, not a printed value. Where “and” joins values, the source holds several entries; their conditions need not be identical. Identical values can stand only once. Like-named read-outs stand apart in the source and are kept apart here.

What was measured:
Mtb H37Rv (ATCC 27294) [1] = tested on: Mtb H37Rv (ATCC 27294); set-up: method as in PMID 27508879; conditions: cited from earlier work
[2] = tested on: MRC-5 human lung fibroblast cell line; set-up: method as in PMID 27508879; conditions: cited from earlier work
Mtb H37Rv (ATCC 27294) [3] = assay: Resazurin microtiter assay (REMA), MIC90 against bacteria in active state; assay type: cell-based; conditions: Mycobacterium tuberculosis, actively replicating M. tuberculosis H37Rv, REMA; for MIC90: read-out: MIC90
[4] = tested on: dormant M. tuberculosis H37Rv; assay: microbe, parasite or virus in culture; assay type: cell-based; conditions: Mycobacterium tuberculosis, dormant (nonreplicating) M. tuberculosis H37Rv
[5] = Cytotoxicity against MRC-5 cell line; conditions: human, cytotoxicity IC50, MRC-5 cell line
[6] = tested on: Escherichia coli (ATCC 25922); assay: Spectrum of activity, OD570 after 16 h; assay type: cell-based; conditions: ATCC25922, read-out: MIC90 (antimicrobial activity)
Description: (§1) Determination of Minimal Inhibitory Concentration (MIC90) Against Bacteria in Dormant […]
(§2) The selective compounds (SI ≥ 10) were tested against the mycobacterium in a dormant state. The cultures were thawed, diluted in Middlebrook 7H12 broth, and sonicated for 5 s. The cultures were diluted to obtain the concentration between […] and 2 × 10^6 CFU/mL. TwoHfold serial dilutions of the compounds were prepared in a volume of […] in white 96Hwell microtiter plates, followed by the addition of […] of the cell suspension. The microplate cultures were placed under anaerobic conditions (oxygen concentration less than 0.16%) by using an Anoxomat model WS8080 (MART Microbiology) followed by two cycles of evacuation and filling with a mixture of 10% hydrogen (H2), 5% carbon dioxide (CO2), and the balance with nitrogen (N2). An anaerobic indicator strip was placed inside the chamber to visually confirm the removal of oxygen. The plates were incubated at 37°C for 10 days and then transferred to an ambient gaseous condition (5% CO2H enriched air) incubator for a 28 h “recovery.” On day 11 (after the 28Hh aerobic recovery), we determined the luminescence and calculated the MIC90.4
(§3) To establish the spectrum activity, we determined the MIC90 against E. coli (ATCC 25922) and S. aureus (ATCC 29213) by measuring the optical density at 570 nm after 16 h of incubation in Mueller–Hinton II broth (Becton Dickinson, Sparks; Maryland, United States) and against C. albicans (ATCC 10231) at OD570 after 48 h in Cellgro RPMI 1640 medium (Mediatech Inc., Manassas, Virginia, United States). The MIC was defined as the lowest concentration resulting in 90% reduction in absorption relative to that of untreated control cultures.
(§4) Determination of Minimal Inhibitory Concentration Against Isogenic Monoresistant Strains

[7] = tested on: Staphylococcus aureus (ATCC 29213); assay: Spectrum of activity, OD570 after 16 h; assay type: cell-based; conditions: ATCC29213, read-out: MIC90 (antimicrobial activity)
Description: as §1, §2, §3, §4

[8] = tested on: Candida albicans (ATCC 10231); assay: Spectrum of activity, OD570 after 48 h; assay type: cell-based; conditions: ATCC10231, read-out: MIC90 (antimicrobial activity)
Description: as §1, §2, §3, §4

Structure (SMILES) | MIC90 (Mtb H37Rv (ATCC 27294) [3]) | IC50 [5] | also measured
O=C(N/N=C/c1ccc(Oc2no[n+]([O-])c2S(=O)(=O)c2ccccc2)cc1)c1ccncc1 [(E)-4-(4-((2-isonicotinoylhydrazono)methyl)phenoxy)-3-(phenylsulfonyl)-1,2,5-oxadiazole 2-oxide] | – | – | MIC90 (Mtb H37Rv (ATCC 27294) [1]): 1 µM and 1.0 µM; IC50 [2]: 43 µM
NC(=O)c1c(COc2ccccc2/C=N/NC(=O)c2ccncc2)no[n+]1[O-] [Compound 4a, (E)-3-Carbamoyl-4-((2-((2-isonicotinoylhydrazono)methyl)phenoxy)methyl)-1,2,5-oxadiazole 2-Oxide] | 0.16 µg/mL (≈ 0.418 µM) | 327 µg/mL (≈ 854 µM) | MIC90 [4]: 2.95 µg/mL (≈ 7.72 µM)
NC(=O)c1c(COc2cccc(/C=N/NC(=O)c3ccncc3)c2)no[n+]1[O-] [Compound 4b, (E)-3-Carbamoyl-4-((3-((2-isonicotinoylhydrazono)methyl)phenoxy)methyl)-1,2,5-oxadiazole 2-Oxide] | 0.15 µg/mL (≈ 0.392 µM) | 490 µg/mL (≈ 1280 µM) | MIC90 [4]: 1.6 µg/mL (≈ 4.18 µM)
NC(=O)c1c(COc2ccc(/C=N/NC(=O)c3ccncc3)cc2)no[n+]1[O-] [Compound 4c, (E)-3-Carbamoyl-4-((4-((2-isonicotinoylhydrazono)methyl)phenoxy)methyl)-1,2,5-oxadiazole 2-Oxide] | 0.16 µg/mL (≈ 0.418 µM) | 443 µg/mL (≈ 1160 µM) | MIC90 [4]: 0.78 µg/mL (≈ 2.04 µM)
O=C(N/N=C/c1ccc2no[n+]([O-])c2c1)c1ccccc1 [Compound 9, (E)-6-((2-Benzoylhydrazono)methyl)benzo[c][1,2,5]oxadiazole 1-Oxide] | 2.4 µg/mL (≈ 8.5 µM) | 36.8 µg/mL (≈ 130 µM) | –
CC(C)(C)c1ccc(C(=O)N/N=C/c2ccc3no[n+]([O-])c3c2)cc1 [Compound 10, (E)-6-((2-(4-(tert-Butyl)benzoyl)hydrazono)methyl)benzo[c][1,2,5]oxadiazole 1-Oxide] | 1.3 µg/mL (≈ 3.84 µM) | 8.5 µg/mL (≈ 25.1 µM) | –
O=C(N/N=C/c1ccc2no[n+]([O-])c2c1)c1ccc([N+](=O)[O-])cc1 [Compound 11, (E)-6-((2-(4-Nitrobenzoyl)hydrazono)methyl)benzo[c][1,2,5]oxadiazole 1-Oxide] | 1.73 µg/mL (≈ 5.29 µM) | – | MIC (Mtb H37Rv (ATCC 27294) [3]): > 62 µM; MIC90 [6]: > 200 µM; MIC90 [7]: > 200 µM; MIC90 [8]: > 200 µM
O=C(N/N=C/c1ccc2no[n+]([O-])c2c1)c1ccccc1O [Compound 12, (E)-6-((2-(2-Hydroxybenzoyl)hydrazono)methyl)benzo[c][1,2,5]oxadiazole 1-Oxide] | – | – | MIC (Mtb H37Rv (ATCC 27294) [3]): 16.4 µg/mL
O=C(N/N=C/c1ccc2no[n+]([O-])c2c1)c1cccc(O)c1 [Compound 13, (E)-6-((2-(3-Hydroxybenzoyl)hydrazono)methyl)benzo[c][1,2,5]oxadiazole 1-Oxide] | > 25 µg/mL | – | –
O=C(N/N=C/c1ccc2no[n+]([O-])c2c1)c1ccc(O)cc1 [Compound 14, (E)-6-((2-(4-Hydroxybenzoyl)hydrazono)methyl)benzo[c][1,2,5]oxadiazole 1-Oxide] | > 25 µg/mL | – | MIC90 [6]: > 200 µM; MIC90 [7]: > 200 µM; MIC90 [8]: > 200 µM
Nc1ccccc1C(=O)N/N=C/c1ccc2no[n+]([O-])c2c1 [Compound 15, (E)-6-((2-(2-Aminobenzoyl)hydrazono)methyl)benzo[c][1,2,5]oxadiazole 1-Oxide] | 3.7 µg/mL (≈ 12.4 µM) | 36.4 µg/mL (≈ 122 µM) | –
Nc1cccc(C(=O)N/N=C/c2ccc3no[n+]([O-])c3c2)c1 [Compound 16, (E)-6-((2-(3-Aminobenzoyl)hydrazono)methyl)benzo[c][1,2,5]oxadiazole 1-Oxide] | 5.3 µg/mL (≈ 17.8 µM) | 24.4 µg/mL (≈ 82.1 µM) | –
Nc1ccc(C(=O)N/N=C/c2ccc3no[n+]([O-])c3c2)cc1 [Compound 17, (E)-6-((2-(4-Aminobenzoyl)hydrazono)methyl)benzo[c][1,2,5]oxadiazole 1-Oxide] | 3.16 µg/mL (≈ 10.6 µM) | 250 µg/mL (≈ 841 µM) | MIC90 [6]: > 200 µM; MIC90 [7]: > 200 µM; MIC90 [8]: > 200 µM
N#Cc1c(-c2ccccc2)[n+]([O-])c2ccc(C3OCCO3)cc2[n+]1[O-] [Compound 19] | 10.3 µg/mL (≈ 30.7 µM) | 10.7 µg/mL (≈ 31.9 µM) | –
Cc1ccc(-c2c(C#N)[n+]([O-])c3cc(C4OCCO4)ccc3[n+]2[O-])cc1 [Compound 20, 3-Cyano-6-(1,3-dioxolan-2-yl)-2-(p-tolyl)quinoxaline 1,4-Dioxide] | 5.7 µg/mL (≈ 16.3 µM) | 6.2 µg/mL (≈ 17.7 µM) | –
N#Cc1c(-c2ccc(Cl)cc2)[n+]([O-])c2ccc(C3OCCO3)cc2[n+]1[O-] [Compound 21, 2-(4-Chlorophenyl)-3-cyano-6-(1,3-dioxolan-2-yl)quinoxaline 1,4-Dioxide] | 6.4 µg/mL (≈ 17.3 µM) | 5 µg/mL (≈ 13.5 µM) | –
COc1ccc(-c2c(C#N)[n+]([O-])c3cc(C4OCCO4)ccc3[n+]2[O-])cc1 [Compound 22, 3-Cyano-6-(1,3-dioxolan-2-yl)-2-(4-methoxyphenyl)quinoxaline 1,4-Dioxide] | 4.4 µg/mL (≈ 12 µM) | 5.5 µg/mL (≈ 15.1 µM) | –
N#Cc1c(-c2ccc(F)cc2)[n+]([O-])c2ccc(C3OCCO3)cc2[n+]1[O-] [Compound 23, 3-Cyano-6-(1,3-dioxolan-2-yl)-2-(4-fluorophenyl)quinoxaline 1,4-Dioxide] | 8.6 µg/mL (≈ 24.3 µM) | 7.7 µg/mL (≈ 21.8 µM) | –
N#Cc1c(-c2ccc(OC(F)(F)F)cc2)[n+]([O-])c2ccc(C3OCCO3)cc2[n+]1[O-] [Compound 24, 3-Cyano-6-(1,3-dioxolan-2-yl)-2-(4-(trifluoromethoxy)phenyl)quinoxaline 1,4-Dioxide] | 6.5 µg/mL (≈ 15.5 µM) | 28 µg/mL (≈ 66.8 µM) | –
N#Cc1c(-c2ccco2)[n+]([O-])c2ccc(C3OCCO3)cc2[n+]1[O-] [Compound 25, 3-Cyano-6-(1,3-dioxolan-2-yl)-2-(furan-2-yl)quinoxaline 1,4-Dioxide] | 1.7 µg/mL (≈ 5.23 µM) | 11.6 µg/mL (≈ 35.7 µM) | –
N#Cc1c(-c2cccs2)[n+]([O-])c2ccc(C3OCCO3)cc2[n+]1[O-] [Compound 26, 3-Cyano-6-(1,3-dioxolan-2-yl)-2-(thiophen-2-yl)quinoxaline 1,4-Dioxide] | 4.1 µg/mL (≈ 12 µM) | 5.9 µg/mL (≈ 17.3 µM) | –
N#Cc1c(-c2ccccc2)[n+]([O-])c2ccc(/C=N/NC(=O)c3ccncc3)cc2[n+]1[O-] [Compound 28] | 16.3 µg/mL (≈ 39.7 µM) | 8.6 µg/mL (≈ 21 µM) | –
NNC(=O)c1ccncc1 [isoniazid, reference compound] | 0.014 µg/mL (≈ 0.102 µM) | – | –
